Measured values from the supplement of paper PMC6723410.

The molecules below were run on GUMC-403 (assay: viability at highest tested concentration (max response) relative to DMSO (% of DMSO control); higher = less cytotoxic). Settings: library / dose series: MIPE library, 11-point 1:3 dilution; top concentration 23 µM; 48 h.
Summary of the method: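 Each figure stands for viability at the highest tested concentration compared with vehicle control. It was measured by CellTiter-Glo luminescence on a ViewLux after 48 h of exposure to 23 nL of pinned compound, with vehicle wells taken as 100% and empty wells as 0%. The cells were patient-derived GUMC-403 papilloma cells grown by conditional reprogramming, plated at 700/well in 5 μL F + Y medium in 1536-well plates.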
`CC(C)Cc1ccc(C(C)C(=O)O)cc1` (stereo not drawn) gave a viability of 103.

Same assay, conditions: library / dose series: MIPE library, 11-point 1:3 dilution; top concentration 46.1 µM; 48 h
`CCN1CCC(n2cc(CNc3cc(Cl)c4ncc(C#N)c(Nc5ccc(F)c(Cl)c5)c4c3)nn2)CC1` was tested, and the viability was 97. Work on `CCCN[C@H]1CCc2nc(N)sc2C1` yielded a viability of 142. `CO[C@H]1O[C@@H]2O[C@@]3(C)CC[C@H]4[C@H](C)CC[C@@H]([C@H]1C)[C@@]24OO3` showed a viability of 116. With `Cc1c(C)n(Cc2ccc(-c3ccccc3C(=O)O)cc2)c2ccc(C(=O)N[C@@H](C)c3ccc([N+](=O)[O-])cc3)cc12` the viability was 102. Molecule `Cc1ccc(-n2nc(C(C)(C)C)cc2NC(=O)Nc2ccc(OCCN3CCOCC3)c3ccccc23)cc1` has a viability of 56. For `CCC1(c2ccc(N)cc2)CCC(=O)NC1=O` (stereo not drawn), the viability was 93.1. `C1CCN2C[C@H]3C[C@H](\C=C/4CCCN[C@@H]34)[C@H]2C1` gave a viability of 120. `CNC(=O)[C@H](CC/1=C/N=C\2/C=C\C\C=C12)NC(=O)[C@H](CC(C)C)CC(=O)NO` showed a viability of 66.4. Work on `COc1ccc2c(c1)[C@]13CCCCC1C(C2)N(C)CC3` (stereo partly drawn) yielded a viability of 102. In the case of `CC[C@@]1(O)C[C@H](O[C@H]2C[C@H](N(C)C)[C@H](O[C@H]3C[C@H](O)[C@H](O[C@H]4CCC(=O)[C@H](C)O4)[C@H](C)O3)[C@H](C)O2)c2c(cc3c(c2O)C(=O)c2c(O)cccc2C3=O)[C@H]1C(=O)OC`, the viability is reported as 83.4. For `Clc1ccc(COC(Cn2ccnc2)c2ccc(Cl)cc2Cl)cc1` (stereo not drawn), the viability was 117. With `C[C@H](CCC(=O)O)[C@H]1CC[C@H]2[C@@H]3[C@H](O)C[C@@H]4C[C@H](O)CC[C@]4(C)[C@H]3CC[C@]12C` the viability was 128. For `COc1ccccc1OCCNCC(O)COc1cccc2[nH]c3ccccc3c12` (stereo not drawn), the viability was 102. Molecule `Oc1c(Cl)cc(Cl)c2cccnc12` has a viability of 128. `COc1ccc2cc([C@H](C)C(=O)O)ccc2c1` gave a viability of 97.3. In the case of `CNC(=O)c1ccc2cc(C3(O)CCn4cncc43)ccc2c1` (stereo not drawn), the viability is reported as 106. With `CC1CCN(c2cc(N3CCN(C)CC3)ccc2NC(=O)c2cc(C#N)c[nH]2)CC1` the viability was 116. Molecule `CN(C)CCOc1cc(-c2cn[nH]c2)ccc1NC(=O)C1COc2ccccc2O1` (stereo not drawn) has a viability of 117. In the case of `CCn1c(-c2nonc2N)nc2cncc(CNC3CCNCC3)c21`, the viability is reported as 121. `C[C@@H](CN1CC(=O)NC(=O)C1)N1CC(=O)NC(=O)C1` gave a viability of 118. With `O=C1NC(=O)/C(=C\c2ccc(-c3ccc(F)cc3)o2)S1` the viability was 106. For `CN(C)c1nc(Cc2ccc(NC(=O)c3ccc4ccccc4c3)cc2)nc(Cl)c1CC(=O)O`, the viability was 114. `COC(=O)[C@@H]1CC2=CC(=O)CC[C@]2(C)[C@@]23O[C@@H]2C[C@@]2(C)[C@@H](CC[C@@]24CCC(=O)O4)[C@H]13` was tested, and the viability was 128. Molecule `COc1c(N2C[C@@H]3CCCN[C@@H]3C2)c(F)cc2c(=O)c(C(=O)O)cn(C3CC3)c12.Cl.O` has a viability of 133. In the case of `O=C(O)c1ccc2cc(-c3ccc(O)c(C45CC6CC(CC(C6)C4)C5)c3)ccc2c1`, the viability is reported as 109. `CC1(C)SCCN([S+](=O)([O-])c2ccc(OCC#CCO)cc2)[C@H]1C(=O)NO` showed a viability of 103. `CC(=O)SC[C@@H](C)C(=O)N1CCC[C@H]1C(=O)N[C@@H](Cc1ccccc1)C(=O)O` was tested, and the viability was 135. For `NC(=O)N1CCC(CC(=O)N2CCC([C@H]3c4ncc(Br)cc4CCc4cc(Cl)cc(Br)c43)CC2)CC1`, the viability was 101. `C/C(=C\c1csc(C)n1)[C@@H]1C[C@@H]2O[C@@H]2CCC[C@H](C)[C@H](O)[C@@H](C)C(=O)C(C)(C)[C@@H](O)CC(=O)O1` was tested, and the viability was 114. Work on `C[S+](=O)([O-])Oc1ccc2c(NC(N)=O)c(C(=O)c3ccc(Cl)cc3Cl)oc2c1` yielded a viability of 108. Molecule `O=C(NCC1CCCCN1)c1cc(OCC(F)(F)F)ccc1OCC(F)(F)F` (stereo not drawn) has a viability of 87.2. `C[C@H](CCC(=O)O)[C@H]1CC[C@H]2[C@@H]3[C@@H](O)C[C@@H]4C[C@H](O)CC[C@]4(C)[C@H]3CC[C@]12C` was tested, and the viability was 84.8. Work on `COc1cc([C@@H]2c3cc4c(cc3[C@@H](O[C@@H]3O[C@@H]5CO[C@@H](C)O[C@H]5[C@H](O)[C@H]3O)[C@H]3COC(=O)[C@H]23)OCO4)cc(OC)c1O` yielded a viability of 124. For `N[C@H]2CN(CC12CC1)c3c(F)cc4c(c3Cl)[N@@](C=C(C4=O)C(=O)O)C5C[C@H]5F` (stereo partly drawn), the viability was 103. Work on `O=C(O)CCNC(=O)c1ccc(/N=N/c2ccc(O)c(C(=O)O)c2)cc1` yielded a viability of 107. For `CC[C@H]1OC(=O)[C@H](C)C(=O)[C@H](C)[C@@H](O[C@H]2O[C@H](C)C[C@H](N(C)C)[C@H]2O)[C@](C)(OC)C[C@@H](C)C(=O)[C@H](C)[C@H]2N(CCCCn3cnc(-c4cccnc4)c3)C(=O)O[C@]12C`, the viability was 102. With `C=C(C)[C@H]1Cc2c(ccc3c2O[C@@H]2COc4cc(OC)c(OC)cc4[C@@H]2C3=O)O1` the viability was 112. Work on `COc1cc2c(cc1OC)[C@@H]1Cc3ccc(OC)c(OC)c3CN1CC2` yielded a viability of 115. `Cc1cn(-c2cc(NC(=O)c3ccc(C)c(Nc4nccc(-c5cccnc5)n4)c3)cc(C(F)(F)F)c2)cn1` was tested, and the viability was 130. `COc1ccc(CC2NCCc3cc(OC)c(OC)cc32)cc1OC` (stereo not drawn) showed a viability of 91.3. In the case of `CNC1CCC(N(Cc2cccc(-c3ccncc3)c2)C(=O)c2sc3ccccc3c2Cl)CC1` (stereo not drawn), the viability is reported as 110. `Cc1cncc2cccc([S+](=O)([O-])N3CCCN(C(=O)CN)C[C@@H]3C)c12` was tested, and the viability was 138. Molecule `CCN(CC)CCCC(C)Nc1ccnc2cc(Cl)ccc12` (stereo not drawn) has a viability of 103. For `C[C@H]1C[C@H]2[C@@H]3CC[C@](O)(C(=O)CO)[C@@]3(C)C[C@H](O)[C@@H]2[C@@]\4(C)/C=C\C(=O)\C=C14`, the viability was 121. `COc1cc2ncnc(-n3nc(-c4ccccn4)nc3N)c2cc1OC` showed a viability of 124. Work on `COc1cc2c(cc1O)CCC1C2CC[C@@]2(C)C1CC[C@@H]2O` (stereo partly drawn) yielded a viability of 101. `O=C(O)CCC1CCC(c2cc(F)ccc2F)([S+](=O)([O-])c2ccc(Cl)cc2)CC1` (stereo not drawn) showed a viability of 99.9. `Cc1nnc(C(C)C)n1[C@@H]1C[C@H]2CC[C@@H](C1)N2CC[C@H](NC(=O)C1CCC(F)(F)CC1)c1ccccc1` was tested, and the viability was 140. `COc1ccc2c(c1OC)CN1CCc3cc4c(cc3C1C2)OCO4` (stereo not drawn) gave a viability of 121. Work on `O=c1[nH]c2ccccc2n1C1CCN(Cc2ccc(-c3nc4cc5nc[nH]c5cc4nc3-c3ccccc3)cc2)CC1` yielded a viability of 103. With `O=C(CCc1ccc(O)cc1)c1c(O)cc(O)cc1O` the viability was 107. Work on `O=C(c1ccc(/C=C/c2n[nH]c3ccccc23)cc1)N1CCNCC1` yielded a viability of 86.5. In the case of `O=C/1NC(=O)C(=C1C2=CN=C3C=CC=C[N]23)/C4=C[N]5CCN(CC6=C5C4=CC=C6)C(=O)N7CCOCC7`, the viability is reported as 60.5. `CC(C)N(CCNC(=O)CN1CCCC1=O)C(C)C` showed a viability of 103. `COc1ccc2cc(-c3[nH]c(-c4ccc([S+](C)[O-])cc4)nc3-c3ccncc3)ccc2c1` (stereo not drawn) gave a viability of 144. `CCN1CCN(C(=O)Cc2ccc(Nc3ncc(F)c(Nc4ccc(C(=O)Nc5ccccc5Cl)cc4)n3)cc2)CC1` showed a viability of 55.5. `COC(=O)Nc1nc2ccc([S+]([O-])c3ccccc3)cc2[nH]1` (stereo not drawn) gave a viability of 95.4. In the case of `OCc1ccccc1O[C@@H]1O[C@H](CO)[C@@H](O)[C@H](O)[C@H]1O`, the viability is reported as 151. `CCC(C)N1\N=C/N(C1=O)C2=CC=C(C=C2)N3CCN(CC3)C4=CC=C(OC[C@H]5CO[C@@](C[N]6C=NC=N6)(O5)C7=CC=C(Cl)C=C7Cl)C=C4` (stereo partly drawn) was tested, and the viability was 101. `COc1ccc(Cc2ccc(NC(N)=O)cc2)cc1-c1cccc(Cl)c1` was tested, and the viability was 124. For `Cc1[nH]c(/C=C2\C(=O)Nc3ccccc32)c(C)c1CCC(=O)O`, the viability was 98.9. `Cc1coc2c1C(=O)C(=O)c1c-2ccc2c1CCCC2(C)C` gave a viability of 113. In the case of `CC1=CC=CC=C1N2\C(=N/C3=C(C(=CC=C3)C)C2=O)C[N]4C=NC5=C4N=CN=C5N`, the viability is reported as 24.1. `Oc1cc(O)cc(/C=C/c2ccc(O)c(O)c2)c1` showed a viability of 91.7. In the case of `CN1[C@@H]2CC(O)C[C@H]1[C@@H]1O[C@@H]12` (stereo partly drawn), the viability is reported as 92.4. `CO[C@H]1C[C@@H]2CC[C@@H](C)[C@@](O)(O2)C(=O)C(=O)N2CCCC[C@H]2C(=O)O[C@H]([C@H](C)C[C@@H]2CC[C@@H](OC(=O)C(C)(CO)CO)[C@H](OC)C2)CC(=O)[C@H](C)/C=C(\C)[C@@H](O)[C@@H](OC)C(=O)[C@H](C)C[C@H](C)/C=C/C=C/C=C/1C` was tested, and the viability was 110. In the case of `CN1\C(=C(\O)C2=C(C=CS2)[S+]1([O-])=O)C(=O)NC3=CC=CC=N3`, the viability is reported as 126. `CCCCCCCCCCCC/1=C(O)/C(=O)/C=C(O)\C1=O` gave a viability of 89. With `C=C1C(=O)OC2/C=C(/C)CC/C=C(/C)CCC12` (stereo not drawn) the viability was 113. Work on `CC(=O)O[C@H]1C[C@@H]2CC[C@@H]3[C@H](CC[C@@]4(C)[C@H]3C[C@H]([N+]3(C)CCCCC3)[C@@H]4OC(C)=O)[C@@]2(C)C[C@@H]1[N+]1(C)CCCCC1` yielded a viability of 122. `COC1=CC=C2[C@H]3CC[C@]4(C)[C@H](CC[C@H]4[C@@H]3CCC2=C1)NCCCCCCN5C(=O)\C=C/C5=O` showed a viability of 129. Work on `C\C1=C\C(=O)C2=C(C=CC=C2)C1=O` yielded a viability of 109. `NC(=O)c1cnc(-c2ccc(C3(N)CCC3)cc2)c(-c2ccccc2)c1` showed a viability of 103. `COC1=CC2=C(C=C1CC3=C(F)C(=CC=C3)Cl)C(=O)\C(=C/N2[C@H](CO)C(C)C)C(O)=O` was tested, and the viability was 124. In the case of `Cc1cccc(CN2CCN(C(c3ccccc3)c3ccc(Cl)cc3)CC2)c1` (stereo not drawn), the viability is reported as 87.2. With `Clc1ccccc1C(c1ccccc1)(c1ccccc1)n1ccnc1` the viability was 99.5.

Same assay, conditions: library / dose series: MIPE library, 11-point 1:3 dilution; top concentration 92.2 µM; 48 h
`C[C@]12CCC(=O)C=C1CC[C@@H]1[C@@H]2CC[C@@]2(C)[C@H]1CC[C@]2(C)O` was tested, and the viability was 128.
